Data: US6084097A, “Methods for preparing 1-[4-arylpiperazin-1-yl]-3-[2-oxopyrrolidin/piperidin-1-yl] propanes” (Council of Scientific & Industrial Research, priority 1997, dated 2000)

How the values were obtained:
anaesthetized cat = assay: Effect on blood pressure, heart rate and adrenaline vasopressure response at anaesthetized cat; type: in vivo
Procedure: Effect on blood pressure, heart rate and adrenaline
(§1) (a) Cats (2.6-4.0 kg) of either sex anaesthetized with pentobarbitone sodium (40 mg/kg i.v.) and showing basal mean arterial blood pressure below 150 mm (Hg) were categorised as normotensive and above 150 mm Hg as hypertensive. Arterial blood pressure (EP) was recorded from one of the carotid artery through a stathum P23 DC pressure transducer and 7P1 low level DC preamplifier on a Grass Model P7 Polygraph, Signals from 7P1 preamplifier were used to trigger 7P4 Tachograph preamplifier for recording the heart rate (HR). Right femoral vein and Trachea were cannulated for intravenous injections and artificial ventilation respectively. Control responses to intravenous injection of noradrenaline (2-4 ug); acetyl choline (1-2 ug); histamine (1-2 ug) and isoprenaline (1-2 ug) were taken before and after the administration of test doses of each compounds.

[1] = test system: Hypertensive rat model preparation; assay: Effect on blood pressure, heart rate and adrenaline vasopressor response, hypertensive rat model preparation; type: in vivo
Procedure: (§2) 2. Effect on blood pressure, heart rate and adrenaline vasopressor response of anaesthetized (pentobarbitone sodium 40 & 60 mg/kg i.p. in cat and rat respectively) normotensive & hypertensive rat & cat model preparations.

[2] = test system: Isolated Guinea pig ileum; assay: Isolated Guinea pig ileum preparation; details: in vitro
[3] = test system: Langendorff perfused rat heart; assay: Cardioprotective activity, Langendorff perfused rat heart, prolong period of ischemic insult
Procedure: Further, in Langendorff perfused rat heart preparation subjected to even up to 90 mm. global ischemia, the compound at 0.001 ug/ml conc.
The rats were killed by decaptitation, heart were rapidly excised and placed in ice-cold HEPES tyrode buffer. Then isolated hearts were perfused retrogradely through coronary arteries using the Langendorff technique. The perfusion buffer consisted (in mM) NaCl 137, KCl 5.4, CaCl2 1.8, MgCl2 1.0, glucose 11.2 and HEPES 3.0. The buffer (pH 7.4) was continuously gassed with oxygen and maintained at 37° C. Coronary flow rate was maintained at 10 ml/min. The heart contracted spontaneously.
The perfused heart was allowed to equillibrate for 30 min. before initiation of any insult protocol. The test compounds were given at the time of reperfusion. Some of the compounds were dissolved in ethanol. Final concentration of ethanol in the perfusion buffer was 0.0001% and had no effect of its own on the parameter used.
(b) For prolong period of ischemic insult (Becker, L. C. & Ambrosio, G. Myocardial consenquences of reperfusion. Prog. Cardiovas. Dis., 30, 23-44, 1987). Ischemia was initiated by stopping the flow for 30 min. followed by 30 min. reperfusion.

[4] = test system: Naturally occurring hypertensive cat; assay: Effect on blood pressure, heart rate and adrenaline vasopressor response, naturally occurring hypertensive cat; type: in vivo; details: n = 4
Procedure: as §2, §1

[5] = test system: Normotensive rat model preparation; assay: Effect on blood pressure, heart rate and adrenaline vasopressor response, normotensive rat model preparation; type: in vivo; details: n = 2
Procedure: as §2

Rat aortic ring = Rat aortic ring preparation, NE induced contraction; details: in vitro
cat = assay: Drug antagonism studies at 2 uMol dose i.v. in cat; type: in vivo; details: 2 uMol i.v.
Excerpt: (B) In viva Drug antagonism studies at 2 uMol dose i.v. in cat: […]

perfused rat heart = assay: Langendorffs perfused rat heart preparation, chronotropic effect
Isolated aortic strip = assay: Isolated aortic strip, endothelin induced contraction
Site of action: ICV = type: in vivo; details: dose 0.34-1.36
Normotensive cat = assay: Effect on blood pressure, heart rate and adrenaline vasopressor response, normotensive cat; type: in vivo; details: n = 4
Procedure: as §2, §1

[6] = Felis catus, iv, 10.0 umol/kg i.v., read-out: B.P. fall %
[7] = Felis catus, iv, 2.0 umol/kg i.v.
[8] = Felis catus, iv, 10.0 umol/kg i.v.
[9] = 0.001 ug/ml at the time of reperfusion, up to 90 mm. global ischemia

O=C1CCCN1CCCN1CCN(c2ccccn2)CC1 [2-Pyridyl, n=1]
Adrenaline vasopressure response (R/Pt) (anaesthetized cat; 10.0 umol/kg i.v.): Pt (potentiation (was within 20%)) | Blood pressure fall % at 2 µmol/kg (anaesthetized cat; Felis catus, iv, 2.0 umol/kg i.v., read-out: B.P. fall %): 22% | Blood pressure fall % at 10 µmol/kg (anaesthetized cat; [6]): 40%

O=C1CCCCN1CCCN1CCN(c2ccccn2)CC1 [2-Pyridyl, n=2, 1-[4-(2-pyridyl)piperazin-1-yl]-3-[2-oxopiperidin-1-yl]propane]
Adrenaline vasopressure response (R/Pt) (anaesthetized cat; 10.0 umol/kg i.v.): Pt (potentiation (was within 20%)) | inhibition in vivo at 2 µmol/kg (anaesthetized cat; [7]): 28%

CCc1ccccc1N1CCN(CCCN2CCCC2=O)CC1 [C6 H4-2-C2 H5, n=1, 1-[4-(2-ethylphenyl)piperazin-1-Yl]-3-[2-oxopyrrolidin-1-yl]propane]
Adrenaline vasopressure response (R/Pt) (anaesthetized cat; 2.0 umol/kg i.v.): Pt (potentiation (was within 20%))

COc1ccccc1N1CCN(CCCN2CCCC2=O)CC1 [C6 H4-2-OCH3, n=1]
B.P. fall % (anaesthetized cat; 2.0 umol/kg i.v.): 19% | Adrenaline vasopressure response (R/Pt) (anaesthetized cat; 10.0 umol/kg i.v.): R | Blood pressure fall % at 10 µmol/kg (anaesthetized cat; [6]): 23%

O=C1CCCCN1CCCN1CCN(c2cccc(C(F)(F)F)c2)CC1 [C6 H4-3-CF3, n=2, 1-[4-(3-trifluoromethylphenyl)piperazin-1-yl]-3-[2-oxopiperidin-1-yl]propane]
Adrenaline vasopressure response (R/Pt) (anaesthetized cat; 2.0 umol/kg i.v.): Pt (potentiation (was within 20%)) | Dur. (anaesthetized cat; 10.0 umol/kg i.v.): Tr | inhibition in vivo at 10 µmol/kg (anaesthetized cat; [8]): 25%

O=C1CCCN1CCCN1CCN(c2cccc(Cl)c2)CC1 [C6 H4-3-Cl, n=1, 1-[4-(3-chlorophenyl)piperazin-1-yl]-3-[2-oxopyrrolidin-1-yl]propane]
Adrenaline vasopressure response (R/Pt) (anaesthetized cat; 2.0 umol/kg i.v.): Pt-

O=C1CCCCN1CCCN1CCN(c2cccc(Cl)c2)CC1 [C6 H4-3-Cl, n=2, 1-[4-(3-chlorophenyl)piperazin-1-yl]-3-[2-oxopiperidin-1-yl]propane]
inhibition in vivo at 2 µmol/kg (anaesthetized cat; [7]): 33% | inhibition in vivo at 10 µmol/kg (anaesthetized cat; [8]): 10%

O=C1CCCN1CCCN1CCN(c2cccc(F)c2)CC1 [C6 H4-3-F, n=1, 1-[4-(3-fluorophenyl)piperazin-1-yl)-3-[2-oxopyrrolidin-1-yl]propane]
Adrenaline vasopressure response (R/Pt) (anaesthetized cat; 10.0 umol/kg i.v.): R | inhibition in vivo at 2 µmol/kg (anaesthetized cat; [7]): 80%

O=C1CCCCN1CCCN1CCN(c2ccc(Cl)cc2)CC1 [C6 H4-4-Cl, n=2, 1-[4-(4-chlorophenyl)piperazin-1-yl]-3-[2-oxopiperidin-1-yl]propane]
inhibition in vivo at 2 µmol/kg (anaesthetized cat; [7]): 20% | inhibition in vivo at 10 µmol/kg (anaesthetized cat; [8]): 25%

O=C1CCCN1CCCN1CCN(c2ccc(F)cc2)CC1 [C6 H4-4-F, n=1, 1-[4-(4-fluorophenyl)piperazin-1-yl]-3-[2-oxopyrrolidin-1-yl]propane]
Adrenaline vasopressure response % inhibition ([1]; 5 uMol/kg i.d., n = 3): 33% | B.P. Fall duration ([1]; 5 uMol/kg i.d., n = 3): 51 min | Adrenaline vasopressure response % inhibition ([1]; 10 uMol/kg i.d., n = 5): 23% | B.P. Fall duration ([1]; 10 uMol/kg i.d., n = 5): 76 min | Adrenaline vasopressure response % inhibition ([1]; 20 uMol/kg i.d., n = 1): 54% | B.P. Fall duration ([1]; 20 uMol/kg i.d., n = 1): 100 min | Endothelin response [2]: relaxation rather than contraction | Incidence of reperfusion induced arrhythmia [3, 9]: abolished | Revival of normal rhythmic contraction, start [3, 9]: ≤ 2 mm. | Cardioprotective effect against myocardial stunning, dose ([3]; compared with antihypertensive dose): much smaller dose than antihypertensive dose | Adrenaline vasopressure response % inhibition ([4]; 10 uMol/kg i.d.): 49% | B.P. Fall duration ([4]; 10 uMol/kg i.d.): 110 min | Adrenaline vasopressure response, R (Reversal) ([4]; 20 uMol/kg i.d.): 26% | B.P. Fall duration ([4]; 20 uMol/kg i.d.): > 156.75 min | Adrenaline vasopressure response % inhibition ([5]; 2 uMol/kg i.v.): +7% | Adrenaline vasopressure response % inhibition ([5]; 10 uMol/kg i.v.): +14% | Adrenaline vasopressure response % inhibition ([5]; 20 uMol/kg i.v.): -9.5% | NE induced contraction (Rat aortic ring): inhibited | Reduction of antihypertensive effect by pretreatment (cat; Dup-753 (angiotension II-receptor antagonist) pretreatment): 33% | Antihypertensive effect after pretreatment (cat; atropine sulphate pretreatment): failed to alter | Reduction of antihypertensive effect by pretreatment (cat; captopril (ACE inhibitor) pretreatment): 33% | Fall in blood pressure after pretreatment (cat; glibenclamide (KATP blocker) pretreatment): only partially reduced | Antihypertensive effect after pretreatment (cat; mepyramine maleate pretreatment): failed to alter | Reduction of antihypertensive effect by pretreatment (cat; prazosin (alpha1-adrenergic receptor blocker) pretreatment, significantly): 90% | Antihypertensive effect after pretreatment (cat; propranolol pretreatment): failed to alter | Reduction of antihypertensive effect by pretreatment (cat; verapamil (Ca++ channel blocker) pretreatment, significantly): 50% | Antihypertensive effect after pretreatment (cat; yohimbine pretreatment): failed to alter | Negative chronotropic effect, duration (perfused rat heart; 1 ug): 10 min | Negative chronotropic effect, duration (perfused rat heart; 3 ug (higher doses 3-5 ug)): 14 min | Negative chronotropic effect, duration (perfused rat heart; 5 ug (higher doses 3-5 ug)): 5 min | inhibition at 0.001 mg (perfused rat heart; Rattus norvegicus, 1 ug, read-out: Negative chronotropic effect): 30% | inhibition at 0.003 mg (perfused rat heart; Rattus norvegicus, 3 ug (higher doses 3-5 ug), read-out: Negative chronotropic effect): 26% | inhibition at 0.005 mg (perfused rat heart; Rattus norvegicus, 5 ug (higher doses 3-5 ug), read-out: Negative chronotropic effect): 5% | Endothelin response after washing the preparation (Isolated aortic strip; after washing the preparation): relaxation rather than contraction | Endothelin induced contraction (Isolated aortic strip; in vitro): inhibited significantly | Adrenaline vasopressure response (R/Pt) (anaesthetized cat; 10.0 umol/kg i.v.): R | inhibition in vivo at 2 µmol/kg (anaesthetized cat; [7]): 9% | B.P. fall Dur. (Site of action: ICV): 10 to 15 min | Adrenaline vasopressure response % inhibition (Normotensive cat; 10 uMol/kg i.d.): 26% | B.P. Fall duration (Normotensive cat; 10 uMol/kg i.d.): 85 min | B.P. Fall duration (Normotensive cat; 20 uMol/kg i.d.): > 102.5 min

O=C1CCCCN1CCCN1CCN(c2ccc(F)cc2)CC1 [C6 H4-4-F, n=2, 1-[4-(4-fluorophenyl)piperazin-1-yl]-3-[2-oxopiperidin-1-yl]propane]
Adrenaline vasopressure response (R/Pt) (anaesthetized cat; 10.0 umol/kg i.v.): R | inhibition in vivo at 2 µmol/kg (anaesthetized cat; [7]): 46%
